Measurements: patent US20250049776A1, “AUTOPHAGY INDUCING COMPOUNDS AND USES THEREOF, IN PARTICULAR FOR A SYSTEMIC TREATMENT OF DISEASES AND CONDITIONS” (Samsara Therapeutics Inc., priority 2021, published 2025)
pIC50: −log10 of the molar value.

What was measured:
[1] = system: adult human dermal fibroblast cells (HDFa cells); experiment: Acidic vesicle formation in adult human dermal fibroblast cells; format: cell-based; settings: concentration of 10 μM
From the text: This is evidence for significant stimulation of autophagy by this compound under these conditions.

[2] = system: Human osteosarcoma U20S cells; experiment: Assay to measure lysosome and autolysosome formation (acidic vesicle formation, LysoView/LysoTracker staining); format: cell-based; settings: U20S cells
In short: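 U2OS cells treated with compounds in DMSO for 24 h, then stained 45 min at 37 °C with 1× LysoView 633 or 50 nM LysoTracker Deep Red, with Hoechst nuclear counterstain. Live-cell fluorescence imaging at 37 °C; acidic vesicle formation judged against DMSO-treated control.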

[3] = system: ZIKV; experiment: Infectivity assay ZIKV in SH-SY5Y cells; format: cell-based; settings: Zika virus, MOI 5, 48 h, E staining
Experimental: (§1) Cells were seeded in 96 well plates and the following day pre-treated with a 3-fold serial dilution of compound starting from 20 μM, in 100 μL of assay media. 24 hours later, cells were infected (without removing the media) with ZIKV or HCMV at a multiplicity of infection (MOI) compatible with multiple rounds of virus replication. DMSO-treated infected and uninfected cells were included as positive and negative controls. [table]

[4] = Cytotoxicity assay (MTT) parallel to HCMV infectivity assay; format: cell-based; settings: human, HFF cells, read-out: HCMV TC50
Experimental: (§2) In parallel to the infectivity assays, in order to determine the cytotoxic properties of the compound, cells were seeded in 96 well plates and the following day pre-treated with the same serial dilutions of compound in 100 μl of assay media. The compound was left on the cells for the duration of the infectivity assays, after which a metabolic assay (MTT assay) was used to determine cell viability compared to a DMSO-treated control.

[5] = system: SH-SY5Y; experiment: Cytotoxicity assay (MTT) parallel to ZIKV infectivity assay; format: cell-based; design: key: A “—” symbol indicates no inhibition; settings: SH-SY5Y cells, 48 h
Experimental: as §2

[6] = system: Differentiated hepatocyte GSD1A disease model cells; experiment: iPSC model of glycogen storage disease type 1A: glycogen and triglyceride quantification; format: cell-based, human; settings: hepatocytes differentiated from GSD1A patient derived iPSCs, 10 μM
Experimental: Timetable for Treatment of Cells with the Compounds: • Day 1. Differentiated hepatocyte GSD1A disease model cells (DefiniGEN Ltd) were cultured in a collagen I coated 48-well plate. Empty wells were filled with PBS. • Day 9. The racemic mixture of compounds 170 and 171 (as a solution in DMSO) was added to the disease model cells • Day 11. Media for disease model cells was replaced with fresh media with compound. • Day 12. Cells were washed once in PBS and once in HBSS and 30 μL of NP40 Lysis buffer supplied with Phosphatase and Protease inhibitor cocktail was added to each well. Plate was immediately placed on dry ice. […]
Protein quantification: An aliquot of the lysates was used for protein quantification using BCA.
Glycogen quantification: An aliquot of the lysates was boiled at 96° C. for 5 minutes. […] Supernatant was used for Glycogen quantification using MAK016 kit (Merck), following manufacturer's instructions. […] 8 μL of Hydrolysis buffer from the kit was added to one aliquot from each sample (-HE; to quantify free glucose content of the lysate). The other sample was supplied with 8 μL of Hydrolysis buffer supplied with Hydrolysis Enzyme (+HE; to quantify free glucose+glycogen content of the lysate). After 30 minutes of incubation at room temperature, 10 μL of probe mix was added to each well and the absorbance at 570 nm was measured after 30 minutes incubation at room temperature. […]

[7] = system: HCMV; experiment: Infectivity assay HCMV in HFF cells; format: cell-based, Human Cytomegalovirus (HCMV); settings: Human betaherpesvirus 5, 360 h, MOI 1, 15 days, gB staining
Experimental: as §1

[8] = system: Mutant PNPLA3-Expressing HepG2 Cells (GFP-PNPLA3 (1148>M)); experiment: Cellular model of NAFLD: gel assay for mutant PNPLA3-expressing HepG2 cells; format: cell-based; settings: HepG2 cells transfected with GFP-PNPLA3 (1148>M), 24 hours
Experimental: Method: HepG2 cells were transfected with GFP-PNPLA3 (1148>M) overexpression plasmid using Lipofectamine LTX in DMEM media supplied with 1% Oleic Acid-BSA and were left overnight. The next day, cells were trypsinated and were seeded in a 96-well plate in DMEM media supplied with 1% Oleic Acid-BSA. After 7 hours, media was changed to standard DMEM supplied with the compound of interest. After 24 hours, cells were washed once with PBS and were lysed in RIPA buffer. Lysates were collected, centrifuged and the supernatants were mixed with Laemmli buffer (without DTT or boiling) and were loaded on a 4-20% SDS-PAGE gel. After electrophoresis, gels were directly imaged in the FITC channel to visualise the GFP signal.

[9] = system: dopaminergic Tyrosine hydroxylase (TH)-positive neurons injured with MPTP; experiment: Cellular model of Parkinson's disease (MPTP/MPP+ injury of primary mesencephalic neurons); format: cell-based, Rat; settings: concentrations of 10 μM
From the text: This model (run by Neuro-Sys SAS, France) is based on a primary culture of dopaminergic Tyrosine hydroxylase (TH)-positive neurons injured with the dopaminergic neurons-specific toxin (DA-toxin) 1-methyl-4-phenyl-1,2,3,6 tetrahydropyridine (MPTP, a prodrug of MPP*) (Dauer and Przedborski, 2003). Any substances reducing DA-toxin neurotoxicity may be useful as a new therapeutic agent for the treatment or prevention of PD.
Primary culture of mesencephalic neurons: Rat dopaminergic neurons were cultured as described by Visanji et al., 2008 and Callizot et al., 2019. Briefly, pregnant female rat (Wistar) of 15 days of gestation were killed using a deep anesthesia with CO2 chamber and a cervical dislocation. The midbrains obtained from 15-day-old rat embryos (Janvier, France) were dissected under a microscope. The embryonic midbrains will be removed and placed in ice-cold medium of Leibovitz (L15) containing 2% of Penicillin-Streptomycin (PS) and 1% of bovine serum albumin (BSA). The ventral portion of the mesencephalic flexure, a region of the developing brain rich in dopaminergic neurons, was used for the cell preparations.
The midbrains were dissociated by trypsinisation for 20 min at 37° C. (solution at a final concentration of 0.05% trypsin and 0.02% EDTA). The reaction was stopped by the addition of Dulbecco's modified Eagle's medium (DMEM) containing DNAase I grade II (0.5 mg/mL) and 10% of foetal calf serum (FCS). Cells were then mechanically dissociated by 3 passages through a 10 ml pipette. Cells were then centrifuged at 180×g for 10 min at +4° C. on a layer of BSA (3.5%) in L15 medium. The supernatant was discarded and the cell pellets re-suspended in a defined culture medium consisting of Neurobasal supplemented with B27 (2%), L-glutamine (2 mM) and 2% of PS solution and 10 ng/mL of Brain-derived neurotrophic factor (BDNF) and 1 ng/mL of Glial-Derived Neurotrophic Factor (GDNF). Viable cells were counted in a Neubauer cytometer using the trypan blue exclusion test. The cells were seeded at a density of 40,000 cells/well in 96 well-plates (pre-coated with poly-L-lysine) and maintained in a humidified incubator at 37° C. in 5% CO2/95% air atmosphere. Half of the medium was changed every 2 days with fresh medium. The wells of first and last lines and columns […] (to avoid any edge effect) and were be filled with sterile water.
Test compounds and MPTP: • i) Pre-incubation. On day 6 of culture, the test compounds were dissolved in PBS or DMSO and incubated for 1 hour before the MPTP exposure. • ii) Injury. One hour after the application of test compound, MPTP was added to a final concentration of 4 μM, diluted in control medium still in presence of compounds/inhibitors for 48h. Test compounds were tested on one culture in 96-well plate (n=6 culture wells per condition).
Immunostaining: TH and α-Synuclein. 48 Hours after intoxication, the cell culture supernatant was removed, and the cells were fixed by a solution of 4% paraformaldehyde in PBS, pH=7.3 for 20 min at room temperature. The cells were washed twice in PBS, and then permeabilized. Non-specific sites were blocked with a solution of PBS containing 0.1% of saponin and 1% FCS for 15 min at room temperature. The cultures were incubated with: (a) monoclonal anti-Tyrosine Hydroxylase (TH) antibody produced in mouse at dilution of 1/10000 in PBS containing 1% FCS, 0.1% saponin, for 2 hours at room temperature, and (b) polyclonal anti-alpha synuclein (α-synuclein) antibody produced in rabbit at dilution of 1/200 in PBS containing 1% FCS, 0.1% saponin, for 2 h at room temperature.
Automatic computer analysis. For each condition, 20 pictures (representing the whole well area) were automatically taken using ImageXpress® (Molecular Devices) at 10× magnification (20 pictures, for TH and α-synuclein into TH neurons) using the same acquisition parameters. From images, analyses was directly and automatically performed by MetaXpress® (Molecular Devices).

Compound	acidic vesicle formation relative to a DMSO-treated control [1]	acidic vesicle formation relative to a DMSO-treated control ([2]; concentration of 10 μM, 24 hours)	increase in acidic vesicle formation ([2]; relative to DMSO-treated control (10 μM))	pIC50 [3]	CC50 at 15 days [4] [µM]	ZIKV TC50 [5]	reduction of cellular glycogen compared with the DMSO-only control [6]	reduction of cellular triglycerides compared with the DMSO-only control [6] [%]	pIC50 [7]	fold increase in GFP breakdown Bafilomycin-sensitive-product signal versus an inactive control [8] [fold]	increase in the length of the neurite network of dopaminergic TH positive neurons compared to the MPP+ injury alone ([9]; 1 μM and 500 nM) [%]	increase in the number of dopaminergic TH positive neurons compared to MPP+ injury alone ([9]; 1 μM and 500 nM) [%]	decrease in α-syn area per dopaminergic TH positive neuron compared to MPP+ injury alone ([9]; 1 μM, 500 nM and 100 nM) [%]
CCCN(C(=O)c1csc(-c2cnn(-c3ccccc3)c2)n1)C1CCNC1 (racemic) [racemic mixture of compounds 170 and 171]	significantly greater acidic vesicle formation	clearly increased	at least 25%	> 4.82	> 75	—	over 75%	> 20	> 5.00	3.7			
NC[C@H]1CCCN1C(=O)c1csc(-c2cnn(-c3ccccc3)c2)n1 [Compound 156, 1-[(2R)-1-[2-(1-phenyl-1H-pyrazol-4-yl)-1,3-thiazole-4-carbonyl]pyrrolidin-2-yl]methanamine]											> 39	> 18	> 13
